According to patent US20080292760A1, “Semi-Solid Food Products and Methods For Their Production, Based on Inhibiting Amylase Starch Breakdown” (WAGENINGEN CENTRE FOR FOOD SCIENCES, priority 2004, published 2008):

Biological target: T1, salivary amylase (Homo sapiens, UniProt P0DUB6)
T1 construct: from tissue; host or cells: saliva in the mouths of the human panelists (in vivo)
T1 sequence (P0DUB6 16-511): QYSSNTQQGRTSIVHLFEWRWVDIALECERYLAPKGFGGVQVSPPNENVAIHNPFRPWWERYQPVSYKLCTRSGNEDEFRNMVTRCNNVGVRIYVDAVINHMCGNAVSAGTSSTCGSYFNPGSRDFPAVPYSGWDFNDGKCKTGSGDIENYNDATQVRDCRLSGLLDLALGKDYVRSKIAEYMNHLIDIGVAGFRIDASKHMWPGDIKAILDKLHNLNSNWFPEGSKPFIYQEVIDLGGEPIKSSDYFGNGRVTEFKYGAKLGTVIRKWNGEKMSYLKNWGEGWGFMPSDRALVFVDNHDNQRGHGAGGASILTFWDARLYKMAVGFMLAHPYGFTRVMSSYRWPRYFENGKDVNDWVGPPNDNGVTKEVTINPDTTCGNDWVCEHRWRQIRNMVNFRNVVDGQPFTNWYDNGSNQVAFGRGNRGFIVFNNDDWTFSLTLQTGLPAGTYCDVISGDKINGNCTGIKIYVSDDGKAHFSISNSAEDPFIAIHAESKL
Assay: acarbose study: sensory rating of vanilla custard desserts with added acarbose
Assay type: in vivo
Details: Creamex custard
Experimental: The role of salivary amylase in modifying texture sensations was evaluated in the following examples, in which the level of amylase activity was varied within subjects, rather than between subjects. Alpha-amylase was added in varying concentrations to starch and CMC (non-starch)-based vanilla custard desserts. Additionally, amylase activity was inhibited to various degrees by adding the pharmaceutical amylase inhibitor Acarbose (CAS nr. 56180-94-0) in various concentrations to the same test foods.
Eighteen subjects, 11 females and 7 males aged between 18 and 34 yrs, participated the ‘amylase study’ and 7 different subjects, all females aged between 39 and 56 yrs, participated in the ‘acarbose study’. The subjects participating in the latter study had been informed about acarbose and its possibly side effects if swallowed. To avoid these side effects, subjects expectorated rather than swallowed the acarbose samples. All subjects signed consent forms expressing their willingness to participate in the studies, and all had previously been screened for olfactory and taste disorders and had received extensive training in the description of sensory mouthfeel and afterfeel attributes for semi-solid foods. Testing took place at the sensory facilities of TNO-Nutrition and Food Research in Zeist, The Netherlands. […]

SMILES: C[C@H]1O[C@H](O[C@H]2[C@H](O)[C@@H](O)[C@@H](O[C@H]3[C@H](O)[C@@H](O)C(O)O[C@@H]3CO)O[C@@H]2CO)[C@H](O)[C@@H](O)[C@@H]1N[C@H]1C=C(CO)[C@@H](O)[C@H](O)[C@H]1O (stereo partly shown) [Acarbose]
- increase of creamy mouthfeel: up to 59%
